In data set [1] the test system is male Wistar rats. As to the kind of experiment: Comparison of oral BAY 85-3934 with rhEPO on erythropoiesis. The note with it: BAY 85-3934 2.5 mg/kg once daily oral; rhEPO 25, 50, 100 IU/kg twice weekly s.c.; p<0.001 at day 30. It counts as in vivo, rat.
Procedure: Male Wistar rats (240–340 g in body weight) were housed with five animals per cage for at least 1 week before experimentation. Blood samples from rats were collected under anesthesia (2% isoflurane in air) by puncturing the retro-orbital vein plexus with a glass capillary. In a repeat-dose, 26-day experiment, animals were administered vehicle or BAY 85-3934 at doses of 0.5 mg/kg, 1.25 mg/kg, 2.5 mg/kg, and 5 mg/kg. PCV was determined at baseline and at weekly intervals after centrifugation in a hematocrit capillary tube (Brand) for 10 min at full speed in a Haemofuge centrifuge (Heraeus). The number of reticulocytes in 5 µl blood was counted after staining with thiazol orange (Becton Dickinson) according to the manufacturer’s instructions by FACS analysis on a BD FACSCalibur system (Becton Dickinson). The efficacy of BAY 85-3934 (2.5 mg/kg, once-daily, oral) was also compared with that of rhEPO (25 IU/kg, 50 IU/kg, and 100 IU/kg, twice-weekly, s.c. injection). […] The efficacy of oral treatment with BAY 85-3934 was compared with that of standard rhEPO treatment in male Wistar rats.
The subject of another data set is cynomolgus monkeys. As to the kind of experiment: Comparison of BAY 85-3934 with rhEPO (single dose and 14-day repeat dose). It counts as in vivo, cynomolgus monkey. Here is the method:
Male and female cynomolgus monkeys (2.8–5.6 kg in body weight) were used, which were housed two per cage. Blood samples from conscious cynomolgus monkeys were taken by puncturing a superficial vein. In a 5-day, repeat-dose study of plasma EPO response, BAY 85-3934 was administered at doses of 0.5 mg/kg and 1.5 mg/kg at 0 h, 24 h, 48 h, 72 h, and 96 h. Blood samples were taken at 7 h, 31 h, 55 h, 79 h, 103 h, and 168 h. Erythropoietic parameters were also evaluated after a 2-week treatment period with s.c. administration of rhEPO (100 IU/kg twice weekly at days 1, 4, 8, and 11) and BAY 85-3934 (1.5 mg/kg) once daily.
(§1) EPO was measured in plasma samples taken from rodents using a commercial ELISA kit (R&D Systems), according to the manufacturer’s instructions. Relative plasma EPO levels were given in picograms per milliliter. In cynomolgus monkeys, EPO was measured using a combination anti-human EPO ELISAs (R&D Systems and Roche Diagnostics), with human EPO as a standard. Values were given as units per liter. For determination of plasma prorenin from rats, a commercial ELISA (Oxford Biomedical Research) was used according to the manufacturer’s instructions. Hemoglobin in rodent blood samples was determined on a Cell-Dyn 3700 apparatus (Abbott Diagnostics). BAY 85-3934 plasma concentrations were determined after protein precipitation with acetonitrile/ammonium acetate using an internal standard, followed by separation using HPLC/mass spectrometry.
In a further study, the efficacy of oral treatment with BAY 85-3934 was evaluated in comparison with rhEPO. Animals were administered a single dose of rhEPO (100 IU/kg) by s.c. injection or BAY 85-3934 (1.5 mg/kg, oral). After administration of rhEPO, plasma concentrations of rhEPO were more than 8-fold higher than the endogenous EPO levels induced by treatment with BAY 85-3934 (Fig. 3B). The area under the curve (AUC) of rhEPO was more than 6-fold higher than the AUC of endogenous EPO. […] Mean reticulocyte counts were 2-fold higher after treatment with rhEPO than after treatment with BAY 85-3934, but returned to baseline values 8 days after treatment cessation.

In data set [2] the test system is male Wistar rats. The data set is described as follows: Subtotal nephrectomy (remnant kidney) model. It counts as in vivo, rat. Here is the method:
In the chronic disease models of subtotal nephrectomy and inflammation, the sodium salt of BAY 85-3934 was used. For administration in drinking water, BAY 85-3934 sodium and enalapril were prepared as 100 mM sodium bicarbonate saline solutions (adjusted to pH 7) at final concentrations of 80 ppm and 30 ppm, respectively. Sham and vehicle control animals received saline only. Unless otherwise stated, chemicals and reagents were purchased from Sigma-Aldrich.
Subtotal nephrectomy was conducted in adult male Wistar rats. Body weight, blood pressure, hematocrit, and blood cell counts were determined at baseline and thereafter at weekly intervals. At baseline, rats were randomly distributed into two groups: those that underwent subtotal nephrectomy and those that underwent a sham procedure without reduction of renal mass. Surgery was performed in deeply anesthetized (2% isoflurane in air) animals. Kidneys were accessed via a dorsolateral incision of the body wall of about 2 cm in length. The right kidney was removed after ligature of the renal peduncle, and subsequently the upper and lower pole of the left kidney were removed, followed by careful hemostasis. Approximately one third of the initial kidney mass remained (removed tissue was weighed to check this was achieved). In the sham-treated animals, both kidneys were exposed before closure of the wound. Three weeks after surgery, animals were allocated to each group in equal proportions with respect to systolic blood pressure and hematocrit values. For 5 weeks, animals were treated twice weekly with rhEPO (100 IU/kg), or once daily with […] (2.5 mg/kg or 5.0 mg/kg) or vehicle. In experiments using enalapril or a combination of BAY 85-3934 sodium and enalapril, study drugs were administered with drinking water. BAY 85-3934 sodium and enalapril were administered in drinking water at concentrations of 80 ppm and 30 ppm, respectively. This was equivalent to approximately 2 mg/kg/day for enalapril and 5 mg/kg/day for BAY 85-3934. Systolic blood pressure and heart rate were determined using the tail-cuff method (a semi-automatic, non-invasive blood pressure monitor; TSE Systems), with three repeated measurements per animal.
as §1
As well as anemia and inflammation, CKD is often accompanied by hypertension, upon which treatment with rhEPO may have an unfavorable impact. The effects of BAY 85-3934 were compared with rhEPO in the remnant kidney (subtotal nephrectomy) model in rats.

Setting [3] is: single dose rhEPO 100 IU/kg s.c. vs BAY 85-3934 1.5 mg/kg oral.
The mark [4] stands for this setting: drinking water, 5 weeks: BAY 85-3934 sodium 80 ppm, enalapril 30 ppm.

As to “rhEPO: Human recombinant EPO (Ortho Biotech), s.c. injection”, the “hematocrit compared with the control group” value in the data set with male Wistar rats [1] is “significant increase”. Further, in the data set with cynomolgus monkeys (14-day repeat dose), the “mean reticulocyte counts relative to BAY 85-3934 treatment” value is 2 fold and the “time after treatment cessation at which reticulocyte counts returned to baseline” value was 8 days. Moreover, the “mean gains of hemoglobin and red blood cells, both treatments compared” value with cynomolgus monkeys (14 days, rhEPO 100 IU/kg twice weekly s.c., BAY 85-3934 1.5 mg/kg once daily) is on record as “almost completely congruent over time”. Moreover, in the data set with cynomolgus monkeys (setting [3]), the “AUC of rhEPO relative to AUC of endogenous EPO” value was “more than 6 fold” and the “plasma rhEPO concentration relative to endogenous EPO induced by BAY 85-3934” value is “more than 8 fold”. In addition, the “systolic blood pressure compared with untreated controls” value in the data set on male Wistar rats [2] (5 weeks, tail-cuff) is “no difference”. For the same compound, the “mean PCV” value in the data set with male Wistar rats [2] (BAY 85-3934 2.5 and 5 mg/kg once daily, rhEPO 100 IU/kg twice weekly) is listed as “significantly increased”. Moreover, in the data set on male Wistar rats [2] (data not shown), the cardiac hypertrophy result is listed as “manifested”.

Consider `CCOC(=O)[C@H](CCc1ccccc1)N[C@@H](C)C(=O)N1CCC[C@H]1C(=O)O` [enalapril, reference compound], for which, in the data set on male Wistar rats [2] (setting [4]), the “mean PCV” value was “remained unchanged”, the “mean systolic blood pressure compared with control” value was “significant reduction” and the plasma prorenin levels entry is “reversion of plasma prorenin levels to normal values”.

Turning to `[Na+].[O-]c1c(-n2ccnn2)cnn1-c1cc(N2CCOCC2)ncn1` [BAY 85-3934 sodium], in the data set on male Wistar rats [2] (setting [4]), the “mean PCV” value is given as “increasing” and the “mean systolic blood pressure compared with control” value was “significantly reduced”.
